Measured values: patent US20220287998A1, “USE OF C3aR IN PREPARING DRUG FOR PREVENTING OR TREATING POLYCYSTIC KIDNEY DISEASE” (Shanghai Changzheng Hospital, priority 2021, published 2022)

Columns and labels:
[1] = system: Han:sPRD rats and PKD1 knockout mice; details: cited from earlier work
Pkd1 knockout mice = experiment: Effect of C3aR inhibitor SB290157 on cyst indexes and kidney function of Pkd1 knockout mice; assay type: in vivo
Excerpt: Experimental animals: the animals used in this experiment were PKD1^flox/flox-Tamoxifen-Cre mice, gifted by professor Wüthrich RP, University of Zurich, Switzerland, and were bred in Specific Pathogen Free (SPF) Laboratory Animal Center of Naval Medical University [License No: SYXK (Shanghai): 2017-0004].
The blood creatinine, urea nitrogen, kidney/body weight, and cyst index of each group of mice were compared.
The main reagents used were a C3aR inhibitor (Calbiochem, SB290157, Germany), Creatinine Assay Kit (Nanjing Jiancheng Bioengineering Institute), Urea Nitrogen Assay Kit (Nanjing Institute of Built Bioengineering), and dimethyl sulfoxide (DMSO) (Amresco, 1963C070, USA).
Serum creatinine (μmol/L)=[(Sample A2-K*Sample A1)−(Blank A2-K*Blank A1)]/[(Standard A2-K*Standard A1)−(Blank A2-K*Blank A1)]*Standard Concentration; Formula:
Urea nitrogen (mmol/L)=(Assay OD−Blank OD)/(Standard OD−blank OD)*Standard Concentration (10 mmol/L)*Dilution multiple;
After HE staining, scanning was performed with a whole slide image scanner, and pictures were exported and saved using CaseViewer software. The total pixel value of the whole kidney in Photoshop software was calculated as A1, a cyst area was selected and calculated the total pixel value as A2, wherein the ratio of A2 to A1 is the cyst index.

[2] = system: Pkd1 conditional knockout mice; experiment: F4/80 immunofluorescence staining, macrophage infiltration in kidney tissue of Pkd1 conditional knockout mice; assay type: in vivo; details: 1 mg/kg i.p. once a day; treatment group versus model control group
Excerpt: F4/80 in the kidney tissues of the wild group, the model control group and the SB290157 treatment group were stained by immunofluorescence to compare the macrophage infiltration.

[3] = system: mouse cyst epithelial cells; experiment: Ki67 immunohistochemical staining of kidney slices, proliferation of cyst epithelial cells; assay type: in vivo, mice; details: treatment group versus model control group
Procedure: In order to explore whether the proliferation of mouse cyst epithelial cells was restricted after treatment, immunohistochemical staining for Ki67 was performed on kidney slices of each group of mice, wherein Ki67 was a nuclear protein that could reflect the cell proliferation level.

[4] = system: ADPKD-related pathway protein; experiment: Western blot of ADPKD-related signaling pathway proteins in kidney tissue; assay type: in vivo, mice
Excerpt: In order to further explore the therapeutic mechanism of SB290157 on polycystic kidney mice, the expression of ADPKD-related pathway protein was detected by Western blot.

Pkd1 knockout mouse = experiment: Apoptosis of cyst cells in Pkd1 knockout mouse; assay type: in vivo
RAW264.7 cells [5] = experiment: C3a stimulation of macrophages, RT-PCR of iNOS, TNF-α and IL-6 mRNA; assay type: cell-based, Murine; details: 24 hours
Procedure: (§1) The C3aR expression on the cell surface affected the sensitivity of downstream signals induced by C3a, so C3a-C3aR should act mainly on M1-type macrophages, which was consistent with the downstream pro-inflammatory effect. To verify the effect of C3a stimulation on the expression of M1-type macrophage inflammatory factor, RAW264.7 cells were divided into 5 groups: (1) a control group: without any stimulation; (2) a LPS group: stimulated with 100 ng/ml LPS; (3) a LPS+C3a group: stimulated with 100 ng/ml LPS+100 ng/ml C3a; (4) a IL-4 group: stimulated with 20 ng/ml IL-4; (5) a IL-4+C3a group: stimulated with 20 ng/ml IL-4+100 ng/ml C3a. After 24 hours, cell RNA was extracted, and RT-PCR was used for detecting iNOS, TNF-α and IL-6 mRNA level in each group of cells, wherein the primer sequence used by RT-PCR was as follows: iNOS primer sequence Mouse F: 5′-[…]-3′ (SEQ ID NO:9), Mouse R: 5′-[…]-3′ (SEQ ID NO:10), IL-6 primer sequence Mouse F: 5′-[…]-3′ (SEQ ID NO:11), Mouse R: 5′-[…]-3′ (SEQ ID NO:12), TNF-α primer sequence Mouse F: 5′-GGCATGGATCTCAAAGACA-3′ (SEQ ID NO:13), Mouse R: 5′-TGGGCTCATACCAGGGTT-3′ (SEQ ID NO:14).

RAW264.7 cells [6] = experiment: TNF-α level in macrophage culture supernatants by Elisa; assay type: cell-based, Murine; details: culture supernatant, after C3a stimulation
Procedure: as §1
The TNF-α level in the culture supernatants of macrophages from different treatment groups were detected by Elisa. […]

RAW264.7 cells [7] = experiment: C3a stimulation of macrophages, Western blot of p-Akt, p-ERK, p-P65, p-STAT1 and TNF-α; assay type: cell-based, Murine; details: 24 hours
Procedure: In order to explore the mechanism of pro-inflammatory effects of C3a-C3aR on M1-type macrophages, RAW264.7 cells were divided into 4 groups with LPS as a stimulation factor and C3a as an intervention factor: (1) a control group (without any stimulation); (2) a C3a (100 ng/ml) stimulation group; (3) a LPS (100 ng/ml) stimulation group; (4) a C3a (100 ng/ml)+LPS (100 ng/ml) stimulation group. After 24 hours, cell proteins in each group were extracted, and Western blot was used for detecting the expression of p-Akt, p-ERK, p-P65, p-STAT1 and TNF-α. […] Akt and ERK may regulate the apoptosis and proliferation of M1-type macrophages, while NF-κB and STAT1 was an important signaling pathway for polarization and related inflammation of M1-type macrophage. Therefore, it is speculated that C3a-C3aR may promote the activation of Akt, ERK, STAT1 and NF-κB pathway in M1-type macrophages, and then promote the secretion of TNF-α inflammatory factors by M1-type macrophages.

[8] = treatment group compared with model control group
[9] = treatment group compared to model control group
[10] = M1-type macrophages (100 ng/ml LPS) + 100 ng/ml C3a
[11] = M1-type macrophages, C3a 100 ng/ml + LPS 100 ng/ml

Molecule: O=C(/C=C/c1ccc(O)c(O)c1)O[C@H](Cc1ccc(O)c(O)c1)C(=O)O [rosmarinic acid]
- growth of kidney cysts [1]: inhibit
- infiltration of kidney interstitial macrophages [1]: significantly reduce
- kidney function [1]: improve

Molecule: N=C(N)NCCCC(NC(=O)COCC(c1ccccc1)c1ccccc1)C(=O)O (stereo not drawn) [SB290157]
- double kidney weight/body weight ratio (2KW/BW) (Pkd1 knockout mice; Pkd1 knockout mice, 1 mg/kg i.p. once a day, day 28, model control 0.112±0.006, wild 0.012±0.000): 0.043±0.007
- blood urea nitrogen (Pkd1 knockout mice; Pkd1 knockout mice, 1 mg/kg i.p. once a day, day 28, model control 80.4±6.0, wild 6.8±0.7): 26.3 ± 6.5 mmol/L
- serum creatinine (Pkd1 knockout mice; Pkd1 knockout mice, 1 mg/kg i.p. once a day, day 28, model control 90.0±3.6, wild 13.0±1.2 μmol/L): 29.3±3.4 μm
- cyst index (Pkd1 knockout mice; Pkd1 knockout mice, 1 mg/kg intraperitoneal once a day from postnatal day 12, sacrificed day 28, model control 49.9±1.9%): 35.3±1.9%
- cyst area (HE staining) (Pkd1 knockout mice; [8]): reduction
- kidney volume (Pkd1 knockout mice; [8]): reduced
- positive rate of F4/80 in the kidney tissue (macrophage infiltration) [2]: significantly lower
- number of kidney Ki67 positive staining cells [3]: significantly lower
- C3aR level [4]: reduced
- expression of p-Akt protein [4, 9]: down-regulated
- expression of p-ERK protein [4, 9]: down-regulated
- expression of p-P65 protein [4, 9]: down-regulated
- apoptosis (Pkd1 knockout mouse): increasing

Molecule: [Cl][Co][Cl] [cobalt chloride]
- growth of kidney cysts [1]: inhibit
- infiltration of kidney interstitial macrophages [1]: significantly reduce
- kidney function [1]: improve

Molecule: C3a: produced by activation of complement C3; promotes inflammatory cell infiltration; used at 100 ng/ml to stimulate macrophages
- pro-inflammatory effect on M2-type macrophages (RAW264.7 cells [5]; 20 ng/ml IL-4 + 100 ng/ml C3a): no significant pro-inflammatory effect
- IL-6 mRNA level (RAW264.7 cells [5]; [10]): remarkably up-regulated
- TNF-alpha mRNA level (RAW264.7 cells [5]; [10]): remarkably up-regulated
- iNOS mRNA level (RAW264.7 cells [5]; M1-type macrophages (100 ng/ml LPS) + 100 ng/ml C3a, versus LPS group): up-regulated
- TNF-α level secreted by M1-type macrophages (RAW264.7 cells [6]): further increased
- stimulatory effect on M0-type macrophages (p-Akt, p-ERK, p-P65, p-STAT1, TNF-α) (RAW264.7 cells [7]; C3a 100 ng/ml alone): not significant
- expression of TNF-α protein (RAW264.7 cells [7]; [11]): further up-regulated
- expression of p-Akt protein (RAW264.7 cells [7]; [11]): further up-regulated
- expression of p-ERK protein (RAW264.7 cells [7]; [11]): further up-regulated
- expression of p-P65 protein (RAW264.7 cells [7]; [11]): further up-regulated
- expression of p-STAT1 protein (RAW264.7 cells [7]; [11]): further up-regulated
